Experimental data: patent US20230183207A1 (priority 2020, published 2023)

Tests used:
[1] = system: SARS-CoV-2; format: cell-based
[2] = system: Vero-E6 and TMPRSS2-over-expressing Vero-E6 cells

## C=CCn1ccc2c(C(=O)Oc3cncc(Cl)c3)cccc21 [GRL-0820S]
[1]
  block of cytopathic effect of SARS-CoV-2 (FIG. 2): significantly block the cytopathic effect

## O=C(Oc1cncc(Cl)c1)c1cccc2[nH]ccc12 [GRL-0920S]
[2]
  toxicity: without significant toxicity
[1]
  block of cytopathic effect of SARS-CoV-2 (FIG. 2): significantly block the cytopathic effect
